These results are taken from patent publication US6156765A, “Method of treating and preventing vasospasm” (The United States of America as represented by the …, priority 1996, dated 2000).

For data set [1] the following is noted: Afshar et al. 1995; cited from earlier work.
The conditions of data set [2]: background statement; cited from earlier work.
For data set [3] the following is noted: NO versus oxygen; cited from earlier work.
The conditions of data set [4]: Harada et al. 1992; Vollmer et al. 1991; cited from earlier work.
For data set [5] the following is noted: ferric iron; cited from earlier work.
For data set [6] the following is noted: ferrous iron; cited from earlier work.
The conditions of data set [7]: Peters et al. 1966; Oubidar et al. 1994; cited from earlier work.
The subject of data set [8] is liver, kidney, brain and other tissues. Put plainly: Gross and microscopic anatomic pathology. The data set is classed as in vivo, cynomologous macaques. On the set-up: key to Toxicity Liver: L+: swelling of hepatocytes; L++: degeneration; L+++: lipidosis (#73, #105), regeneration (885N). Particulars: IV 70 mg/kg/day for 14 days. As for the experimental part:
(§1) Eleven (11) cynomologous macaques (8 male and 3 female, weight 3.0-5.9 kg.) were randomly divided into 2 groups. Craniotomy was performed in all animals and autologous clot was placed around the right middle cerebral artery (R MCA) after the arachnoid membrane was removed, as described elsewhere [Pluta et al., J. Neurosurg. 77:740-748 (1992)]. Six animals (3 male and 3 female) received IV infusion of 2,2'-dipyridyl (70 mg/kg/day) continuously for 14 days. Between postoperative days 7 and 10, cerebral arteriography was used to assess the presence and degree of vasospasm using methods previously described [Pluta et al., J. Neurosurg. 77:740-748 (1992)]. The five control animals (all male) received IV infusion of saline in a volume equal to that delivered in the experimental group (10-15 cc/kg/day). Two pilot animals were also used in an initial phase in order to establish an effective experimental dose. One received 44 mg/kg/day of IV 2,2'-dipyridyl, and the other received up to 100 mg/kg/8 hrs of IV 2,2'-dipyridyl.
Tissues were studied for gross and microscopic anatomic pathology by Dr. Michael Eckhaus and staff (Veterinary Resources Program, National Center for Research Resources, NIH, Bethesda, Md.).

The test system of data set [9] is right middle cerebral artery (R MCA). Put plainly: Arteriographic vasospasm of the R MCA in primate model of SAH (autologous clot placement). The data set is classed as in vivo, cynomologous macaques. Particulars: for arteriographic vasospasm: 70 mg/kg/day. The method, then: as §1
Each monkey underwent arteriographic study of the R MCA 3 to 21 days before surgery and 7 to 10 days after clot placement [Pluta et al., J. Neurosurg. 77:740-748 (1992)]. Under general anesthesia (ketamine 10 mg/kg and isoflurane) and sterile conditions, a cutdown of the right femoral artery was performed and a No. 3 French catheter was advanced to the right ICA. Fluoroscopy (C-arm; OEC) and intravenous contrast (2 cc Conray, 60%; Malinkrodt Medical, St. Louis, Mo.), were used to acquire subtraction images of the vessel. A radiopaque ruler was placed in the field to allow standardized measurements.
(§2) All studies were performed in the standard anteroposterior projection (AP). During the arteriography, the end-tidal CO2 was maintained at 40 mm Hg and core body temperature was maintained at 37 degrees Celsius using a heating pad. Blood pressures were monitored during all procedures.
Placement of Subarachnoid Clot and Indwelling Intravenous Catheter
As in previous studies [Pluta et al., J. Neurosurg. 77:740-748 (1992)], each animal was anesthetized as follows. Each monkey was given an injection of ketamine (10 mg/kg IM), atropine sulfate (0.05 mg/kg IM), and sodium thiopental (25 mg/kg IV). The animals were intubated and ventilated with isoflurane (0.5%-1.0%) and 100% O2 and paralyzed with pancuronium (0.1 mg/kg). Each animal was hyperventilated to an end-tidal CO2 of 30 to 40 mm Hg.
Each animal was placed in the supine position for a right frontotemporal craniotomy. Under sterile conditions, the dura was opened and the R MCA was identified in the sylvian fissure. Using the operating microscope, the arachnoid membrane over the R MCA was dissected from the trifurcation to the origin of the vessel at the ICA bifurcation. 8-10 cc of autologous clotted arterial blood obtained by an assistant via a left femoral cutdown was then placed along the length of the exposed vessel. The dura was then closed in a watertight fashion, followed by the muscle and skin layers.
Each animal was then repositioned for placement of a 6.6 French Broviac catheter in the left femoral vein. […] The distal end of the catheter was passed subcutaneously to the midscapular region and secured. Each monkey was fitted in a jacket containing an infusion pump (Disetronic Medical Systems, Plymouth, Minn.) which delivered 70 mg/kg (60 cc/24 hours) of the 2,2'-dipyridyl solution. Each monkey was sedated daily with ketamine (10 mg/kg IM) to change the delivery pump. […]

Data set [10] can be described thus: Clinical observations for signs of drug toxicity. The data set is classed as in vivo, cynomologous macaques. The method, then:
as §1
The monkeys were observed daily for changes in weight, feeding, behavior, alertness, and neurologic function. The monkeys also were observed closely for signs of drug toxicity, including tremors, emesis, vomiting, diarrhea, seizures, and CNS depression [Sigma MSDS, CAS #366-18-7, 1994].
Pilot studies were done to determine the experimental dosage. […] The second pilot animal received up to 100 mg/kg/8 hours. […] These two pilot animals were then excluded from further data analysis.

A short description of data set [11]: Blood pressure monitoring. It is filed as in vivo, cynomologous macaques. The conditions noted are these: all animals except pilot animal receiving 100 mg/kg/8 hours; 14-day treatment. As for the experimental part:
as §1, §2

The nature of data set [12]: Serum iron concentration in treated animals. The data set is classed as in vivo, cynomologous macaques. The conditions noted are these: drug-treated animals, 70 mg/kg/day. The method, then:
as §1
Plasma samples were collected on days 0 and 7 of each experiment and were analyzed by Maryland Medical Pathology (Rockville, Md.) for serum iron and percent transferrin saturation. Due to the molecular complexity of iron chelators, direct assays for these drugs are not available. […]

For a further data set, the system named is transferrin. Put plainly: Percent transferrin saturation in treated animals. The data set is classed as in vivo, cynomologous macaques. The method, then: as §1
Plasma samples were collected on days 0 and 7 of each experiment and were analyzed by Maryland Medical Pathology (Rockville, Md.) for serum iron and percent transferrin saturation. Due to the molecular complexity of iron chelators, direct assays for these drugs are not available.
Data are reported as means of measurements by three individuals ±SEM and compared using an unpaired […] test. Significance was accepted at p<0.05.

The mark [13] stands for this setting: pilot animal, IV 44 mg/kg/24 hours for 14 days.

Where “and” joins values, the source holds several entries; their conditions need not be identical. Equal values may be shown once.

nitric oxide [NO]: the “effect of intracarotid infusion on vasospasm” value in data set [1] was “reversal of vasospasm”.
As for “oxyhemoglobin: the clinically-relevant vasospastic agent”, in [2], the vasospastic activity entry is recorded as “vasospastic”.
Consider “Hemoglobin: Hemoglobin has a strong affinity for NO”, for which the “binding to NO more readily than to oxygen” value in data set [3] is recorded as 1,500 fold.
For the compound `CC(=O)N(O)CCCCCNC(=O)CCC(=O)N(O)CCCCCNC(=O)CCC(=O)N(O)CCCCCN` [deferoxamine], the “success in potential therapies for vasospasm” value in data set [4] is on record as “limited success”. The “deferoxamine-iron stability constant for Fe^+3” value in data set [5] was 10^31. The “deferoxamine-iron stability constant for Fe^+2” value in [6] is on record as 10^2 to 10^14. Further, in [7], the “CSF levels before toxic systemic effects appear” value is listed as “adequate CSF levels cannot be achieved before toxic systemic effects appear” and the “penetrability of the blood-brain barrier” value is listed as “limited penetrability”.
Regarding `c1ccc(-c2ccccn2)nc1` [2,2'-dipyridyl], in data set [8], the “brain changes (substantia nigra, cerebellum Purkinje cells)” value is “No brain changes”; the “gross pathology: brain, liver, kidney, lymph nodes, spleen, intestine, gonads, or skeletal or cardiac muscle” value is on record as “no toxicity”; the “kidney pathology (collecting tubules), animals #2 and #5” value is “Multifocal casts”; the “kidney pathology, animals #1, #3, #4, or #6” value is “No sign of nephrotoxicity”. Further, in [8], the “liver pathology, animals #1, #3, #4, and #5” value is “Hepato-cellular swelling”; the “liver pathology, animals #2 and #6” value is recorded as “Hepatocellular degeneration”; the “liver pathology, overall” value is reported as “Mild changes”; the “microscopic pathology: brain (substantia nigra and cerebellar Purkinje cells), lymph nodes, spleen, intestine, gonads, or skeletal or cardiac muscle” value is on record as “no toxicity”. For the same compound, the “Toxicity Liver” value in [8] (individual monkey, 70 mg/kg/day) was “L+ and L++”. In addition, the arteriographic vasospasm entry in data set [9] (IV 70 mg/kg/day for 14 days, n=6, postoperative day 7-10) is reported as “no arteriographic vasospasm”. In [9] (IV 70 mg/kg/day for 14 days, n=6, postoperative day 7-10, listed as DP), the arteriographic vasospasm result is reported as “no spasm”. Besides, the “mean AP area of the proximal portion of the MCA, of the baseline area” value in data set [9] (IV 70 mg/kg/day for 14 days, n=6, postoperative day 7-10, mean ± SEM, p<0.0001, control 44.8%±4.6%) is given as 3.9%±4.3. In data set [9] (setting [13]), the “vasospasm (reduction of AP area of R MCA)” value was found to be 20% and the vasospasm grade result was “mild (reduction in the AP area of the defined segment of the MCA of 12-25%)”. Besides, the “toxicity at the effective dose” value in [10] (70 mg/kg/day) is reported as “mild”. Besides, in data set [10] (IV 70 mg/kg/day), the “resolution of tremors and leg weakness, animal #1” value is not above 4 days; the “resolution of tremors and leg weakness, animal #2” value was “did not resolve in animal #2 by day 14”; the “resolution of tremors and leg weakness, animal #4” value is not above 6 days. In addition, the toxic symptoms result in data set [10] (animals #1, #2, and #4, IV 70 mg/kg/day for 14 days) is “mild tremors of the upper and lower extremities, and leg weakness”. Also, in data set [10] (animals #3, #5, and #6, IV 70 mg/kg/day for 14 days), the toxic symptoms entry was “no toxic symptoms”. Moreover, in data set [10] (control or treated animals, IV 70 mg/kg/day for 14 days), the “weight loss, changes in feeding habits, or alertness” value is “None”. The signs of toxicity entry in data set [10] (setting [13]) is given as “no sign of toxicity”. In addition, the symptoms of toxicity entry in data set [10] (pilot animal, IV up to 100 mg/kg/8 hours, sacrificed on fourth day of drug delivery) was “symptoms of toxicity (tremors, emesis, and diarrhea)”. For the same compound, the “blood pressures during preoperative and postoperative arteriography” value in [11] is “stable and equivalent blood pressures”. Moreover, the “serum iron, day 7 as compared to day 0” value in data set [12] is “markedly reduced”. In addition, the “percent saturation of transferrin, change in treated animals” value with transferrin (70 mg/kg/day) was “decreased”. Also, the “TransFe sat % Day 0” value with transferrin (individual monkey, day 0, IV 70 mg/kg/day, 70 mg/kg/day) is 40% and 32% and 31% and 33%. Moreover, the “TransFe sat % Day 7” value in the data set with transferrin (individual monkey, day 7, IV 70 mg/kg/day, 70 mg/kg/day) is 2% and 0% and -1% and -2% and -4%. Also, in the data set with transferrin (mean of table, day 0, IV 70 mg/kg/day), the “TransFe sat % Day 0, Mean” value came to 34 ± 4%. In the data set with transferrin (mean of table, day 7, p < 0.0001, IV 70 mg/kg/day), the “TransFe sat % Day 7, Mean” value is reported as -1.2 ± 2%.
